Numbered stars: 1 amine (or outer) side, 2 acyl side, 3 side chain; on linkers, the order of the positions; unused ones are H or OH. Square brackets hold non-standard residues; d marks the D form. Peptide text beside a SMILES is read from it. dAla(ψthiazole) = C[C@@H](N[*:1])c1nc(C(=O)[*:2])cs1; Trp(4-OMe) = COc1cccc2[nH]cc(C[C@H](N)C(=O)O)c12; Dha = C=C(N)C(=O)O; Sar = CNCC(=O)O
Tests used:
[1] = system: mouse embryonic fibroblasts from p27^kip1 knockout mice; assay: Apoptosis (sub-G1 fraction) by flow cytometry in p27 knockout MEF; assay type: cell-based; details: for apoptosis in p27 knockout MEF: sub G1 fraction
Excerpt: Next the inventors tested whether the stabilization of p27 was indeed required for the apoptosis inducing function of Argyrin A or was merely a consequence of proteasome inhibition. For this the inventors treated immortalized mouse embryonic fibroblasts from p27^kip1 wildtype or knockout mice with Argyrin A or the proteasome inhibitor bortezomib and assayed cell cycle distribution and apoptosis by flow cytometry. […] These differences in sensitivity in response to Argyrin A treatment were not due to differences in the accumulation of other proteasomal substrates in p27 wildtype and knockout cells as p53 and p21 levels increased in both cell lines in response to Argyrin A (FIG. 6B). To extend this observation to human cancer cells the inventors reduced the levels of p27^kip1 in HeLa cells using p27^kip1 specific siRNA.
The results shown are the average numbers for six independent experiments. b+d) Wildtype (b) and p27 knockout (d) MEF were treated with Argyrin A or transfected with siRNAs specific for the β1, β2 or β5 subunit of the proteasome for 24 hours. The graphs show the remaining catalytic activity of the different proteasome subunits after Argyrin A or siRNA treatment compared to an untreated control (n=3). The western blots show the expression of the β1, β2 or β5 subunit of the proteasome in proliferating cells and after treatment with siRNAs for a representative experiment. c+e) Flow cytometric measurements of the number of apoptotic cells (sub-G1 fraction) after Argyrin A or siRNA treatment in wildtype (c) or p27 knockout (E) MEF. f) HeLa cells were treated with Argyrin A or siRNA against p27 or Argyrin A and siRNA against p27 for either 24 or 48 hours.
MTT assays were done as previously described (Sasse, F. et al. Argyrins, immunosuppressive cyclic peptides from myxobacteria. I. Production, isolation, physico-chemical and biological properties. J Antibiot (Tokyo) 55, 543-51 (2002)). TUNEL staining of tissue sections was performed on 10 micrometer sections which were deparafinised and treated as recommended by the manufacturer. (In Situ Cell Death Detection Kit, Fluorescein; ROCHE, Cat #11 684 795 910). Flow cytometric analysis of cultured cells was done using a Becton Dickinson fluorescence cytometer as previously described (Malek, N. P. et al. A mouse knock-in model exposes sequential proteolytic pathways that regulate p27^Kip1 in G1 and S phase. Nature 413, 323-7 (2001)). Analysis of the distribution of cells in the cell cycle and the sub-G1 fraction was done using Cell Quest software. A histone-associated-DNA-fragments ELISA was used to determine the number of apoptotic cells according to manufacturers instructions (Roche #11 774425001).

[2] = system: CD31 positive endothelial cells in tumour tissues (SW480 or HCT116); assay: Microvessel density (CD31) in tumour tissue after single injection; assay type: in vivo, mouse
Procedure: This phenotype is often observed with drugs which interfere with blood vessel formation or compounds which directly damage existing tumour vessels. […] This reduction in tumour vasculature was paralleled by an induction of p27^kip1 expression in the CD31 positive endothelial cells. (FIG. 7A). To understand this phenotype in more detail the inventors analyzed primary tumour material by electronic microscopy. As early as 90 minutes after injection the inventors observed swelling of endothelial cell which was followed by a loss of basal membrane attachment and cell-cell contacts (FIG. 4D) in the tumour vasculature. As a result of the apparent loss of cell and basal membrane attachment after Argyrin A treatment many of the examined tumour blood vessels were occluded with endothelial cells or erythrocytes. The destruction of the tumour core which the inventors observed after Argyrin A treatment might therefore be a result of thrombotic occlusion of the affected blood vessels. In contrast the bortezomib induced reduction in CD31 positive cells correlated with the appearance of necrotic endothelial cells (FIG. 4D).
Treatment with Argyrin A or bortezomib was started when these tumours reached a volume of 200 mm3. […] (n=8 Argyrin A, n=8 Bortezomib, n=6 PBS/EtOH) b) The pictures show the macroscopic appearance of a xenotransplant tumour after 10 days of treatment with Argyrin A. Note the large necrotic centre of the explanted tumour. c) After a single injection of Argyrin A (0.15 mg/kg bodyweight) or bortezomib (1.0 mg/kg bodyweight) tumours were explanted at the indicated time points and blood vessels in the tumour tissue were co-stained for CD31 and p27. […] Note the swelling of the endothelial cell (“E”) and the occlusion of the lumen (“L”) by erythrocytes after 90 minutes of Argyrin A treatment. The arrow marks the detachment of endothelial cells after 48 h of Argyrin A treatment. […] Tube length (f) and blood vessel like […] structures were determined using photographs of HUVEC cultures. The micrographs show representative examples of HUVEC cultures under the indicated conditions.
Immunohistochemical staining of mouse tumour tissue, western Blotting and immunofluorescence experiments were done as previously described (Timmerbeul, I. et al. Testing the importance of p27 degradation by the SCFskp2 pathway in murine models of lung and colon cancer. Proc Natl Acad Sci USA 103, 14009-14 (2006). Kossatz, U. et al. C-terminal phosphorylation controls the stability and function of p27^kip1. Embo J 25, 5159-70 (2006).). […]

Row | SMILES | p27^kip1 knockout fibroblasts undergoing apoptotic cell death ([1]; after 60 hours of treatment) | apoptosis, share of all fibroblasts derived from p27 knockout mice ([1]; comparable levels of proteasome inhibition, 24 hours) [%] | CD31 positive cells remaining ([2]; 72 hours after injection) | number of CD31 positive endothelial cells ([2]; single injection) | start of reduction of CD31 positive endothelial cells after injection ([2]; single injection) [min] | apoptosis in p27 knockout MEF [1] | apoptosis in p27 knockout MEF ([1]; listed as Bortezomib)
1 | C=C1NC(=O)[C@@H](C)NC(=O)CNC(=O)[C@H](Cc2c[nH]c3cccc(OC)c23)NC(=O)[C@H](Cc2c[nH]c3ccccc23)NC(=O)c2csc(n2)[C@@H](C)NC(=O)CN(C)C1=O [Argyrin A] (cyclo(W[Trp(4-OMe)]G[dA][Dha][Sar][dAla(ψthiazole)])) | ten | 5 | about 10% | significant reduction | ≥ 90 |  | 
2 | CC(C)C[C@H](NC(=O)[C@H](Cc1ccccc1)NC(=O)c1cnccn1)B(O)O [bortezomib, reference compound] |  |  |  | reduction |  | massive apoptosis | induced apoptosis

Reference: US8217071B2, “Use of inhibitors of the degradation of p27, in particular Argyrin and derivatives thereof, for the treatment of proliferative diseases” (Helmholtz Zentrum für Infektionsforschung GmbH, priority 2007, dated 2012)
